# Laboratory results from US20240208968A1, “ALPHA V BETA 6 AND ALPHA V BETA 1 INTEGRIN INHIBITORS AND USES THEREOF” (DiCE Molecules SV, Inc., priority 2021, published 2024).
# Columns and labels:
# αvβ1 = αvβ1 (Homo sapiens, UniProt P05556+P06756); test: Solid Phase Integrin αvβ1 Assay; type: binding
# Method in brief: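 Wells coated with 1 µg/mL recombinant TGFb1-LAP and blocked with 2% BSA/TBST, 1 mM MnCl2; αvβ1 (added at 0.2 µg/mL) and compound incubated 90 min at room temperature. Bound integrin detected by streptavidin-HRP (20 min) and TMB after Mn-containing washes; IC50 by four-parameter logistic fit.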
# αvβ6 = αvβ6 (Homo sapiens, UniProt P06756+P18564); test: Solid Phase Integrin αvβ6 Assay; type: binding
# αvβ6, sequence (P06756 31-992 limits assumed): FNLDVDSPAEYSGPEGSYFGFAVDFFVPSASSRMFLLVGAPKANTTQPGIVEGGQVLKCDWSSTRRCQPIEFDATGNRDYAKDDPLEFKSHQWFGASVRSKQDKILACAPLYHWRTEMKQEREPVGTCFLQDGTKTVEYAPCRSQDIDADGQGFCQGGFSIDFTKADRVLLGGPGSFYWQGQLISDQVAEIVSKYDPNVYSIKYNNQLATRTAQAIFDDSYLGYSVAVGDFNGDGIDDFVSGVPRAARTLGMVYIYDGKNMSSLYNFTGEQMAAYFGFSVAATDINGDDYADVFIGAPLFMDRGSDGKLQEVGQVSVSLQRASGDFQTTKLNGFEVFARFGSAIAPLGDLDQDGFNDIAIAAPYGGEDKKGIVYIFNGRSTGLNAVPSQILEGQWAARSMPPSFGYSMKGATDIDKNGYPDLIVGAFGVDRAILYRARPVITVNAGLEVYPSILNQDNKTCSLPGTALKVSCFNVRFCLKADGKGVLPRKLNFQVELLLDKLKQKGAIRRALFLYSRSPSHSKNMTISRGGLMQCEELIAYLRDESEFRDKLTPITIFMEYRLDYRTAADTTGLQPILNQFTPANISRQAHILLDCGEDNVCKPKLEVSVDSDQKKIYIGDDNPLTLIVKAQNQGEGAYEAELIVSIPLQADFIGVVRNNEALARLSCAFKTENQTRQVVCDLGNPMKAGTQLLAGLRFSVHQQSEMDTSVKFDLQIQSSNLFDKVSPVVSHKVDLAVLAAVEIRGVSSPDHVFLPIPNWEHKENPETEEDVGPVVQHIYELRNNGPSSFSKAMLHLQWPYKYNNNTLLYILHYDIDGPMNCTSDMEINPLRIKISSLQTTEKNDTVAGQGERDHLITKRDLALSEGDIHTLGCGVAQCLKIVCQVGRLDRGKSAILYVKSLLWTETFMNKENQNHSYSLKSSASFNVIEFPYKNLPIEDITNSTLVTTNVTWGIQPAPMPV
# αvβ6, sequence (P18564 22-707 limits assumed): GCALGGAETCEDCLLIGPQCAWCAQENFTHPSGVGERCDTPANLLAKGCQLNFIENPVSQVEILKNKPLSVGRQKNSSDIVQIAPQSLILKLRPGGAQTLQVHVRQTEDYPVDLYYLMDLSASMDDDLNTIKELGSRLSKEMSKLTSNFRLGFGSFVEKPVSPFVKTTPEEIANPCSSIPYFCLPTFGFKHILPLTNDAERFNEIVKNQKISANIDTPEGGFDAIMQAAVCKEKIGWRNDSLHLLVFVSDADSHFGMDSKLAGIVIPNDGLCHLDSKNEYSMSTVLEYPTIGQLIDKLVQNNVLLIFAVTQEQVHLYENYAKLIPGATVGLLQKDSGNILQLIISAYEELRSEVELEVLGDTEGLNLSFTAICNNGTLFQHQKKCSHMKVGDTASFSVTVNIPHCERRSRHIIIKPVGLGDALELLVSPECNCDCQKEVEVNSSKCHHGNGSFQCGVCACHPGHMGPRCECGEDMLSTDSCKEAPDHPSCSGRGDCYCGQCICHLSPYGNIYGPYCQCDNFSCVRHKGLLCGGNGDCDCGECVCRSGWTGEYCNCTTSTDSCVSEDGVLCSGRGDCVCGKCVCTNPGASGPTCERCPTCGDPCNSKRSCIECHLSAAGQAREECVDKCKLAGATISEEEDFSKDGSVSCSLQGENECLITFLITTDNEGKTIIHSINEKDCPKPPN
# Method in brief: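 Plates coated with 1 μg/mL recombinant TGFb1-LAP; compounds and αvβ6 (0.2 μg/mL diluted stock) incubated 1 h at room temperature in 2% BSA/TBST with 1 mM MnCl2. Bound integrin detected with streptavidin-HRP and TMB; IC50 from four-parameter logistic fits.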
# αvβ1, sequence (P06756 31-992 limits assumed): as the sequence (P06756 31-992 limits assumed) above
# αvβ1, sequence (P05556 21-728 limits assumed): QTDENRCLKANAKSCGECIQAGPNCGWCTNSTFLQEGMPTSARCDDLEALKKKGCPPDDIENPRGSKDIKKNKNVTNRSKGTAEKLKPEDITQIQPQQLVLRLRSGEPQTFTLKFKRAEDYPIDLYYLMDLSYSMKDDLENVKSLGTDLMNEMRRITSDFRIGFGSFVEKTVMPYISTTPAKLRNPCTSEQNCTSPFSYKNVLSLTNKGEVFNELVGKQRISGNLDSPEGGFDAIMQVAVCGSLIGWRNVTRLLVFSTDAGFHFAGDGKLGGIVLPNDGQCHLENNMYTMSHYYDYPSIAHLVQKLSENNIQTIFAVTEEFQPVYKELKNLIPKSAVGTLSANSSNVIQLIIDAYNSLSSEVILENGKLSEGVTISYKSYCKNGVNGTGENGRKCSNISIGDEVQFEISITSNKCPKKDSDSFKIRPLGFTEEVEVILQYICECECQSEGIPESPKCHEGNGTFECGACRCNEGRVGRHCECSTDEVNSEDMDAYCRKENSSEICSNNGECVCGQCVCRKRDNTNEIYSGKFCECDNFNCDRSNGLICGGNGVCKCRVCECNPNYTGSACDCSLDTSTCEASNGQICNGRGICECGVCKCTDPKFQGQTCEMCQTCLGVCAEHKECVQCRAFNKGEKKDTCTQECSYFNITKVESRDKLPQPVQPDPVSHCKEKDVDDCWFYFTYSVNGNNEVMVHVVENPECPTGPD
SMILES,IC50 (αvβ1) [nM],IC50 (αvβ6) [nM]
O=C(NC[C@H](C(=O)O)c1cnc2c(ccn2CC2CC2)c1)[C@@H]1CCCN(CCCc2ccc3c(n2)NCCC3)C1 [Compound 327],< 100,< 100
O=C(O)C[C@@H](NC(=O)[C@@H]1CCCN(CCCc2ccc3c(n2)NCCC3)C1)c1ccc2c(c1)C1(CC2)CC1 [Compound 328],100 to 1000,100 to 1000
O=C(O)[C@H](CCO[C@@H]1CCCN(CCCc2ccc3c(n2)NCCC3)C1)c1cccc(-c2ccccc2)c1 [Compound 329],> 1000,> 1000
O=C(O)[C@@H](CCO[C@@H]1CCCN(CCCc2ccc3c(n2)NCCC3)C1)c1cccc(-c2ccccc2)c1 [Compound 330],> 1000,< 100
O=C(O)[C@@H](CCO[C@@H]1CCCN(CCCc2ccc3c(n2)NCCC3)C1)NC(=O)C12CCC(CC1)CC2 [Compound 331],< 100,< 100
O=C(O)[C@@H](CCO[C@@H]1CCCN(CCCc2ccc3c(n2)NCCC3)C1)Nc1ncnc2ccccc12 [Compound 332],> 1000,100 to 1000
O=C(O)[C@H](CCO[C@@H]1CCCN(CCCc2ccc3c(n2)NCCC3)C1)NC(=O)C12CCC(CC1)CC2 [Compound 333],100 to 1000,100 to 1000
O=C(O)[C@H](CCO[C@@H]1CCCN(CCCc2ccc3c(n2)NCCC3)C1)Nc1ncnc2ccccc12 [Compound 334],< 100,< 100
O=C(O)CC(CO[C@@H]1CCCN(CCc2ccc3c(n2)NCCC3)C1)c1ccccc1 (some centres unmarked) [Compound 335],100 to 1000,100 to 1000
O=C(O)CC(CO[C@@H]1CCCN(Cc2ccc3c(n2)NCCC3)C1)c1ccccc1 (some centres unmarked) [Compound 336],> 1000,100 to 1000
O=C(O)CC(CO[C@H]1CCCN(CCCc2ccc3c(n2)NCCC3)C1)c1ccccc1 (some centres unmarked) [Compound 337],100 to 1000,100 to 1000
O=C(N[C@@H](CNC(=O)[C@@H]1CCCN(CCCc2ccc3c(n2)NCCC3)C1)C(=O)O)C1CC2CCC1CC2 (some centres unmarked) [Compound 338],< 100,< 100
O=C(O)CC(NC(=O)[C@@H]1CCCN(CCCc2ccc3c(n2)NCCC3)C1)c1cccc2ccccc12 (some centres unmarked) [Compound 339],< 100,< 100
O=C(NC[C@@H](C(=O)O)c1ccccc1-c1ccccc1)[C@@H]1CCCN(CCCc2ccc3c(n2)NCCC3)C1 [Compound 340],100 to 1000,100 to 1000
O=C(NC[C@H](C(=O)O)c1ccccc1-c1ccccc1)[C@@H]1CCCN(CCCc2ccc3c(n2)NCCC3)C1 [Compound 341],> 1000,> 1000
O=C(NC[C@H](C(=O)O)c1ccc(-c2ccccc2)cc1)[C@@H]1CCCN(CCCc2ccc3c(n2)NCCC3)C1 [Compound 342],< 100,< 100
O=C(O)C[C@@H](NC(=O)[C@@H]1CCCN(CCCc2ccc3c(n2)NCCC3)C1)c1cccc(C2CC2)c1F [Compound 344],< 100,< 100
O=C(O)C[C@@H](NC(=O)[C@@H]1CCCN(CCCc2ccc3c(n2)NCCC3)C1)c1ccccc1C1CC1 [Compound 345],> 1000,> 1000
C[C@@H]1CC[C@H](C(=O)N[C@@H](CC(=O)O)c2ccccc2)CN1CCCc1ccc2c(n1)NCCC2 [Compound 346],< 100,< 100
O=C(O)C[C@@H](NC(=O)[C@@H]1CCCN(CCCc2ccc3c(n2)NCCC3)C1)c1cc(F)cc(C2CC2)c1 [Compound 347],< 100,< 100
Nc1nnc(C(=O)N[C@@H](CNC(=O)[C@@H]2CCCN(CCCc3ccc4c(n3)NCCC4)C2)C(=O)O)o1 [Compound 348],< 100,< 100
O=C(O)C[C@H](O[C@@H]1CCCN(CCCc2ccc3c(n2)NCCC3)C1)c1ccccc1 [Compound 349],> 1000,> 1000
O=C(O)[C@H](CO[C@@H]1CCCN(CCCc2ccc3c(n2)NCCC3)C1)c1ccccc1 [Compound 350],> 1000,> 1000
O=C(O)C[C@@H](O[C@@H]1CCCN(CCCc2ccc3c(n2)NCCC3)C1)c1ccccc1 [Compound 351],> 1000,> 1000
O=C(O)[C@@H](CO[C@@H]1CCCN(CCCc2ccc3c(n2)NCCC3)C1)c1ccccc1 [Compound 352],> 1000,> 1000
O=C(O)C[C@H](CO[C@@H]1CCCN(CCc2ccc3c(n2)NCCC3)C1)c1ccccc1 [Compound 353],> 1000,100 to 1000
O=C(O)C[C@@H](CO[C@@H]1CCCN(CCc2ccc3c(n2)NCCC3)C1)c1ccccc1 [Compound 354],> 1000,> 1000
O=C(O)C[C@@H](CO[C@@H]1CCCN(Cc2ccc3c(n2)NCCC3)C1)c1ccccc1 [Compound 355],100 to 1000,> 1000

SMILES,IC50 (αvβ1) [nM],IC50 (αvβ6) [nM]
O=C(O)C[C@H](CO[C@@H]1CCCN(Cc2ccc3c(n2)NCCC3)C1)c1ccccc1 [Compound 356],100 to 1000,> 1000
O=C(O)C[C@H](CO[C@@H]1CCCN(CCCCc2ccc3c(n2)NCCC3)C1)c1ccccc1 [Compound 357],100 to 1000,100 to 1000
O=C(O)C[C@@H](CO[C@@H]1CCCN(CCCCc2ccc3c(n2)NCCC3)C1)c1ccccc1 [Compound 358],< 100,> 1000
O=C(N[C@@H](CNC(=O)[C@@H]1CCCN(CCCc2ccc3c(n2)NCCC3)C1)C(=O)O)c1c(F)cc(N2CCOC[C@@H]2C(F)(F)F)cc1F [Compound 359],< 100,< 100
O=C(NC[C@H](Nc1ccc(-c2ccccc2)nc1)C(=O)O)[C@@H]1CCCN(CCCc2ccc3c(n2)NCCC3)C1 [Compound 360],< 100,< 100
O=C(NC[C@H](Nc1cncc(-c2ccccc2)c1)C(=O)O)[C@@H]1CCCN(CCCc2ccc3c(n2)NCCC3)C1 [Compound 361],< 100,< 100
O=C(N[C@@H](CNC(=O)[C@@H]1CCCN(CCCc2ccc3c(n2)NCCC3)C1)C(=O)O)c1c(Cl)cccc1Cl [Compound 362],< 100,< 100
O=C(N[C@@H](CNC(=O)[C@@H]1CCCN(CCCc2ccc3c(n2)NCCC3)C1)C(=O)O)c1cc(Cl)cc(Cl)c1 [Compound 363],< 100,< 100
O=C(N[C@@H](CNC(=O)[C@@H]1CCCN(CCCc2ccc3c(n2)NCCC3)C1)C(=O)O)c1cc(Cl)ccc1Cl [Compound 364],< 100,< 100
O=C(N[C@@H](CNC(=O)[C@@H]1CCCN(CCCc2ccc3c(n2)NCCC3)C1)C(=O)O)c1cccc(Cl)c1Cl [Compound 365],< 100,< 100
O=C(N[C@@H](CNC(=O)[C@@H]1CCCN(CCCc2ccc3c(n2)NCCC3)C1)C(=O)O)C1CCC(F)(F)CC1 [Compound 366],< 100,< 100
O=C(N[C@@H](CNC(=O)[C@@H]1CCCN(CCCc2ccc3c(n2)NCCC3)C1)C(=O)O)c1ccc(F)c(Cl)c1 [Compound 367],< 100,< 100
O=C(N[C@@H](CNC(=O)[C@@H]1CCCN(CCCc2ccc3c(n2)NCCC3)C1)C(=O)O)c1ccc(Cl)c(Cl)c1 [Compound 368],< 100,< 100
O=C(N[C@@H](CNC(=O)[C@@H]1CCCN(CCCc2ccc3c(n2)NCCC3)C1)C(=O)O)c1ccc(C2CC2)cc1 [Compound 369],< 100,< 100
O=C(N[C@@H](CNC(=O)[C@@H]1CCCN(CCCc2ccc3c(n2)NCCC3)C1)C(=O)O)c1ccccc1C1CC1 [Compound 371],< 100,< 100
O=C(N[C@@H](CNC(=O)[C@@H]1CCCN(CCCc2ccc3c(n2)NCCC3)C1)C(=O)O)c1ccc(Cl)cc1 [Compound 372],< 100,< 100
O=C(N[C@@H](CNC(=O)[C@@H]1CCCN(CCCc2ccc3c(n2)NCCC3)C1)C(=O)O)c1cccc(Cl)c1 [Compound 373],< 100,< 100
O=C(O)C[C@@H](NC(=O)[C@@H]1CCCN(CCCc2ccc3c(n2)NCCC3)C1)c1cnc2ccccc2n1 [Compound 374],100 to 1000,< 100
O=C(NC[C@@H](Nc1ccc(-c2ccccc2)nc1)C(=O)O)[C@@H]1CCCN(CCCc2ccc3c(n2)NCCC3)C1 [Compound 375],< 100,< 100
O=C(NC[C@@H](Nc1cncc(-c2ccccc2)c1)C(=O)O)[C@@H]1CCCN(CCCc2ccc3c(n2)NCCC3)C1 [Compound 376],< 100,< 100
O=C(O)CC(NC(=O)[C@@H]1CCCN(CCCc2ccc3c(n2)NCCC3)C1)c1cccc(O)c1 (some centres unmarked) [Compound 377],< 100,< 100
C[C@H]1CCN(CCCc2ccc3c(n2)NCCC3)C[C@H]1C(=O)N[C@@H](CC(=O)O)c1ccccc1 [Compound 378],> 1000,100 to 1000
C[C@@H]1C[C@H](C(=O)N[C@@H](CC(=O)O)c2ccccc2)CN(CCCc2ccc3c(n2)NCCC3)C1 [Compound 379],< 100,< 100
C[C@H]1C[C@H](C(=O)N[C@@H](CC(=O)O)c2ccccc2)CN(CCCc2ccc3c(n2)NCCC3)C1 [Compound 380],100 to 1000,< 100
O=C(O)[C@@H](CCO[C@@H]1CCCN(Cc2ccc3c(n2)NCCC3)C1)NC(=O)C12CCC(CC1)CC2 [Compound 381],< 100,< 100
O=C(O)[C@@H](CO[C@@H]1CCCN(CCCc2ccc3c(n2)NCCC3)C1)NC(=O)C12CCC(CC1)CC2 [Compound 382],> 1000,> 1000
O=C(O)[C@@H](CCO[C@@H]1CCCN(CCc2ccc3c(n2)NCCC3)C1)NC(=O)C12CCC(CC1)CC2 [Compound 383],< 100,100 to 1000
